Data from US20150196562A1, “FORMULATIONS OF 3-(5-AMINO-2-METHYL-4-OXO-4H-QUINAZOLIN-3-YL)-PIPERIDINE-2,6-DIONE” (Celgene Corporation, priority 2014, published 2015).

Assay: Degradation of Compound A by hydrolysis
Type: physicochemical
Settings: water
Source text: Also provided herein are anhydrous pharmaceutical compositions and dosage forms including an active ingredient, since water can facilitate the degradation of some compounds. For example, the addition of water (e.g., 5 percent) is widely accepted in the pharmaceutical arts as a means of simulating shelf-life, i.e., long-term storage in order to determine characteristics such as shelf-life or the stability of formulations over time. See, e.g., Jens T. Carstensen, Drug Stability: Principles & Practice, 2d. Ed., Marcel Dekker, NY, N.Y., 1995, pp. 379-80. In effect, water and heat accelerate decomposition. Thus, the effect of water on a formulation can be of great significance since moisture and/or humidity are commonly encountered during manufacture, handling, packaging, storage, shipment, and use of formulations.

degradation by hydrolysis: easily degraded by hydrolysis
SMILES: Cc1nc2cccc(N)c2c(=O)n1C1CCC(=O)NC1=O (stereo not shown) [Compound A, 3-(5-amino-2-methyl-4-oxo-4H-quinazolin-3-yl)-piperidine-2,6-dione]
